US20110190336A1, “AZABENZIMIDAZOLONES” (CARA THERAPEUTICS, INC., priority 2008, published 2011)

These molecules were tested against T1, human DP2 receptor (Homo sapiens, UniProt Q9Y5Y4) (assay: Prostaglandin D2 binding inhibition assay (scintillation proximity assay, 3H PGD2, membranes of transfected CHO cells)). Details: SPA, 5.5 nM 3H PGD2, CHO-K1 FLP-In human DP2 membranes; upper limit determinable 30 μM; read-out: IC50 ranges for inhibition of PGD2 binding to human DP2.
T1 construct: expressed in transfected cells; host or cells: CHO-K1 FLP-In (Invitrogen, catalog no. R758-07), stably transfected
T1 sequence (Q9Y5Y4 1-395): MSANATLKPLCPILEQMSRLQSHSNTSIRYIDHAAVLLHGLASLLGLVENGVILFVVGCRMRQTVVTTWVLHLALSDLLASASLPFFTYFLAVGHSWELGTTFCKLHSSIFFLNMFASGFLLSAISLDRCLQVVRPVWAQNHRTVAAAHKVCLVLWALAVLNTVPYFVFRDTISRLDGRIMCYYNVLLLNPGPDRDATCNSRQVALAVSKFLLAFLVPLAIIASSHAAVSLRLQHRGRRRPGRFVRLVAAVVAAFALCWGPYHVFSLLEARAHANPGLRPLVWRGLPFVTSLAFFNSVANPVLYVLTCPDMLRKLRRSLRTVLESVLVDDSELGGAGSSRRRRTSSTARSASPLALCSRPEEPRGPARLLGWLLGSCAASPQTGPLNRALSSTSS
Outline: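 Membranes (5 μg) from CHO-K1 cells stably expressing human DP2 were mixed with WGA SPA beads and 5.5 nM 3H PGD2 in Tris buffer with 10 mM MgCl2, 100 mM NaCl, 0.1% BSA, plus compound. After 60 min at room temperature, CPM were read; IC50 from two-parameter nonlinear regression.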

SMILES | IC50 [µM]
Cc1ccc(S(=O)(=O)N2CCC(n3c(=O)n(CC(=O)O)c4cc(C)cnc43)CC2)c(F)c1 [Compound 124, 2-(3-(1-(2-fluoro-4-methylphenylsulfonyl)piperidin-4-yl)-6-methyl-2-oxo-2,3-dihydro-1H-imidazo[4,5-b]pyridin-1-yl)acetic acid] | 1 to 10
O=C(O)Cn1c(=O)n(C2CCN(S(=O)(=O)c3ccc(Cl)cc3Cl)CC2)c2cccnc21 [Compound 134, 2-(1-(1-(2,4-dichlorophenylsulfonyl)piperidin-4-yl)-2-oxo-1H-imidazo[4,5-b]pyridin-3(2H)-yl)acetic acid] | > 30
O=C(O)Cn1c(=O)n(C2CCN(S(=O)(=O)c3ccc(Cl)s3)CC2)c2ncccc21 [Compound 80, 2-(3-(1-(5-chlorothiophen-2-yl-sulfonyl)piperidin-4-yl)-2-oxo-2,3-dihydro-1H-imidazo[4,5-b]pyridin-1-yl)acetic acid] | 1 to 10
O=C(O)Cn1c(=O)n(C2CCN(S(=O)(=O)c3ccc(Cl)c(Cl)c3)CC2)c2ncccc21 [Compound 35, 2-(3-(1-(3,4-dichlorophenyl-sulfonyl)piperidin-4-yl)-2-oxo-2,3-dihydro-1H-imidazo[4,5-b]pyridin-1-yl)acetic acid] | 1 to 10
O=C(O)Cn1c(=O)n(C2CCN(S(=O)(=O)C3CCCCC3)CC2)c2ncccc21 [Compound 34, 2-(3-(1-(cyclohexylsulfonyl)piperidin-4-yl)-2-oxo-2,3-dihydro-1H-imidazo [4,5-b]pyridin-1-yl)acetic acid] | 1 to 10
O=C(O)Cn1c(=O)n([C@@H]2CCCN(S(=O)(=O)c3ccc(Cl)cc3Cl)C2)c2ncccc21 [Compound 115, (R)-2-(3-(1-(2,4-dichlorophenylsulfonyl)piperidin-3-yl)-2-oxo-2,3-dihydro-1H-imidazo[4,5-b]pyridin-1-yl)acetic acid] | < 1
O=C(O)Cn1c(=O)n(C2CCN(S(=O)(=O)c3cccc(Cl)c3)CC2)c2ncccc21 [Compound 37, 2-(3-(1-(3-chlorophenyl-sulfonyl)piperidin-4-yl)-2-oxo-2,3-dihydro-1H-imidazo[4,5-b]pyridin-1-yl)acetic acid] | 1 to 10
O=C(O)Cn1c(=O)n(C2CCN(S(=O)(=O)c3ccccc3)CC2)c2ncccc21 [Compound 79, 2-(2-oxo-3-(1-(phenylsulfonyl)piperidin-4-yl)-2,3-dihydro-1H-imidazo[4,5-b]pyridin-1-yl)acetic acid] | 1 to 10
O=C(O)Cn1c(=O)n(C2CCN(S(=O)(=O)c3ccsc3)CC2)c2ncccc21 [Compound 60, 2-(2-oxo-3-(1-(thiophen-3-ylsulfonyl)piperidin-4-yl)-2,3-dihydro-1H-imidazo[4,5-b]pyridin-1-yl)acetic acid] | 1 to 10
O=C(O)Cn1c(=O)n(C2CCN(S(=O)(=O)c3cc(Cl)ccc3Cl)CC2)c2ncccc21 [Compound 82, 2-(3-(1-(2,5-dichlorophenylsulfonyl)piperidin-4-yl)-2-oxo-2,3-dihydro-1H-imidazo[4,5-b]pyridin-1-yl)acetic acid] | < 1
O=C(O)Cn1c(=O)n(C2CCN(S(=O)(=O)c3ccc(F)cc3Cl)CC2)c2cccnc21 [Compound 132, 2-(1-(1-(2-chloro-4-fluorophenylsulfonyl)piperidin-4-yl)-2-oxo-1H-imidazo[4,5-b]pyridin-3(2H)-yl)acetic acid] | > 30
O=C(O)Cn1c(=O)n([C@H]2CCCN(S(=O)(=O)c3ccc(Cl)cc3Cl)C2)c2ncccc21 [Compound 109, (S)-2-(3-(1-(2,4-dichlorophenylsulfonyl)piperidin-3-yl)-2-oxo-2,3-dihydro-1H-imidazo[4,5-b]pyridin-1-yl)acetic acid] | 1 to 10
O=C(O)Cn1c(=O)n(C2CCN(S(=O)(=O)c3cccc(OC(F)(F)F)c3)CC2)c2ncccc21 [Compound 45, 2-(2-oxo-3-(1-(3-(trifluoromethoxy)phenylsulfonyl)piperidin-4-yl)-2,3-dihydro-1H-imidazo[4,5-b]pyridin-1-yl)acetic acid] | 1 to 10
CC(C)Oc1ccc(S(=O)(=O)N2CCC(n3c(=O)n(CC(=O)O)c4cc(F)cnc43)CC2)cc1 [Compound 73, 2-(6-fluoro-3-(1-(4-isopropoxyphenyl-sulfonyl)piperidin-4-yl)-2-oxo-2,3-dihydro-1H-imidazo[4,5-b]pyridin-1-yl)acetic acid] | 10 to 30
O=C(O)Cn1c(=O)n(C2CCN(S(=O)(=O)c3ccccc3C(F)(F)F)CC2)c2ncccc21 [Compound 85, 2-(2-oxo-3-(1-(2-(trifluoromethyl)phenylsulfonyl)piperidin-4-yl)-2,3-dihydro-1H-imidazo[4,5-b]pyridin-1-yl)acetic acid] | < 1
COc1ccc(S(=O)(=O)N2CCC(n3c(=O)n(CC(=O)O)c4cccnc43)CC2)cc1 [Compound 89, 2-(3-(1-(4-methoxyphenylsulfonyl)piperidin-4-yl)-2-oxo-2,3-dihydro-1H-imidazo[4,5-b]pyridin-1-yl)acetic acid] | 1 to 10
Cc1ccc(S(=O)(=O)N2CCC[C@@H](n3c(=O)n(CC(=O)O)c4cccnc43)C2)c(F)c1 [Compound 116, (R)-2-(3-(1-(2-fluoro-4-methylphenylsulfonyl)piperidin-3-yl)-2-oxo-2,3-dihydro-1H-imidazo[4,5-b]pyridin-1-yl)acetic acid] | < 1
CS(=O)(=O)c1ccccc1S(=O)(=O)N1CCC(n2c(=O)n(CC(=O)O)c3cnccc32)CC1 [Compound 143, 2-(1-(1-(2-(methylsulfonyl)phenylsulfonyl)piperidin-4-yl)-2-oxo-1H-imidazo[4,5-c]pyridin-3(2H)-yl)acetic acid] | > 30
O=C(O)Cn1c(=O)n(C2CCN(S(=O)(=O)c3ccc(Oc4ccccc4)cc3)CC2)c2ncccc21 [Compound 77, 2-(2-oxo-3-(1-(4-phenoxyphenyl-sulfonyl)piperidin-4-yl)-2,3-dihydro-1H-imidazo[4,5-b]pyridin-1-yl)acetic acid] | 1 to 10
CS(=O)(=O)c1ccccc1S(=O)(=O)N1CCC(n2c(=O)n(CC(=O)O)c3cc(F)cnc32)CC1 [Compound 74, 2-(6-fluoro-3-(1-(2-(methylsulfonyl)phenylsulfonyl)piperidin-4-yl)-2-oxo-2,3-dihydro-1H-imidazo[4,5-b]pyridin-1-yl)acetic acid] | < 1
Cc1cnc2c(c1)n(CC(=O)O)c(=O)n2C1CCN(S(=O)(=O)c2ccc(F)cc2Cl)CC1 [Compound 126, 2-(3-(1-(2-chloro-4-fluorophenylsulfonyl)piperidin-4-yl)-6-methyl-2-oxo-2,3-dihydro-1H-imidazo[4,5-b]pyridin-1-yl)acetic acid] | 10 to 30
O=C(O)Cn1c(=O)n(C2CCN(S(=O)(=O)c3ccccc3OC(F)(F)F)CC2)c2ncccc21 [Compound 33, 2-(2-oxo-3-(1-(2-(trifluoromethoxy)phenylsulfonyl)piperidin-4-yl)-2,3-dihydro-1H-imidazo[4,5-b]pyridin-1-yl)acetic acid] | 1 to 10
CCS(=O)(=O)N1CCC(n2c(=O)n(CC(=O)O)c3cccnc32)CC1 [Compound 43, 2-(3-(1-(ethylsulfonyl)piperidin-4-yl)-2-oxo-2,3-dihydro-1H-imidazo[4,5-b]pyridin-1-yl)acetic acid] | 10 to 30
Cc1cc(C)c(S(=O)(=O)N2CCC(n3c(=O)n(CC(=O)O)c4cccnc43)CC2)c(C)c1 [Compound 50, 2-(3-(1-(mesitylsulfonyl)piperidin-4-yl)-2-oxo-2,3-dihydro-1H-imidazo[4,5-b]pyridin-1-yl)acetic acid] | 1 to 10
O=C(O)Cn1c(=O)n(C2CCN(S(=O)(=O)c3ccc(F)c(F)c3)CC2)c2ncccc21 [Compound 40, 2-(3-(1-(3,4-difluorophenylsulfonyl)piperidin-4-yl)-2-oxo-2,3-dihydro-1H-imidazo[4,5-b]pyridin-1-yl)acetic acid] | 1 to 10
CCCS(=O)(=O)N1CCC(n2c(=O)n(CC(=O)O)c3cccnc32)CC1 [Compound 44, 2-(2-oxo-3-(1-(propylsulfonyl)piperidin-4-yl)-2,3-dihydro-1H-imidazo[4,5-b]pyridin-1-yl)acetic acid] | 1 to 10
Cc1cc(F)ccc1S(=O)(=O)N1CCC(n2c(=O)n(CC(=O)O)c3cccnc32)CC1 [Compound 36, 2-(3-(1-(4-fluoro-2-methylphenyl-sulfonyl)piperidin-4-yl)-2-oxo-2,3-dihydro-1H-imidazo[4,5-b]pyridin-1-yl)acetic acid] | < 1
O=C(O)Cn1c(=O)n(C2CCN(S(=O)(=O)c3ccc(C(F)(F)F)cc3)CC2)c2ncccc21 [Compound 39, 2-(2-oxo-3-(1-(4-(trifluoromethyl)phenylsulfonyl)piperidin-4-yl)-2,3-dihydro-1H-imidazo[4,5-b]pyridin-1-yl)acetic acid] | 1 to 10
O=C(O)Cn1c(=O)n(C2CCN(S(=O)(=O)c3cc(F)c(Br)cc3F)CC2)c2ncccc21 [Compound 83, 2-(3-(1-(4-bromo-2,5-difluorophenyl-sulfonyl)piperidin-4-yl)-2-oxo-2,3-dihydro-1H-imidazo[4,5-b]pyridin-1-yl)acetic acid] | < 1
O=C(O)Cn1c(=O)n(C2CCN(S(=O)(=O)c3ccc(Cl)cc3)CC2)c2ncccc21 [Compound 57, 2-(3-(1-(4-chlorophenylsulfonyl)piperidin-4-yl)-2-oxo-2,3-dihydro-1H-imidazo[4,5-b]pyridin-1-yl)acetic acid] | 1 to 10
